Data on three compounds can be found in patent publication US20130323721A1, “HEPATOCYTES FOR IN VITRO GENOTOXICITY TESTS” (MEDICYTE GMBH, priority 2010, published 2013).

Data set [1] has as its system V79 cells. Conditions: with or without S9 mix; cited from earlier work.
Data set [2] deals with proliferating hepatocytes. The data set can be described thus: Micronucleus formation in proliferating hepatocytes, FACS assay. As to the method: So as to check the suitability of the proliferatable hepatocytes described in the patent with respect to genotoxicity tests, the cells were treated with substances that are considered positive and negative substances for genotoxicity. Genotoxicity was quantified by way of the share of induced micronuclei as compared to the control group using an FACS assay.
The proliferating hepatocytes described in the invention were plated out in a density of 3000 cells/cm^2 on collagen-coated cell culture vessels and treated with the aforementioned substances in various concentrations. Within the scope of regulatory testing according to OECD, testing took place up to 50% cytotoxicity, which was determined for each substance beforehand by way of a MTT viability assay.

Data set [3] relates to bacteria (auxotrophic mutants). Conditions: with S9 fraction of hamster liver; cited from earlier work.

Each structure is given as a SMILES string. Read-outs that look alike come from different tables or passages of the source.

Consider `O=P1(N(CCCl)CCCl)NCCCO1` (stereo not shown) [CPA, cyclophosphamide], for which the “Detection of genotoxicity in micronucleus test” value in data set [1] was “only detected in the currently used micronucleus test with V79 cells if the substance was previously converted with a CYP enzyme extract (S9 mix)”. The “Genotoxicity: induced micronuclei compared to the control group” value in data set [2] (various concentrations up to 50% cytotoxicity, no external S9, FIGS. 2-4) is “clearly recognized as being positive”.

Turning to `COc1cc(/C=C/C(=O)CC(=O)/C=C/c2ccc(O)c(OC)c2)ccc1O` [curcumin], the “Genotoxicity: induced micronuclei compared to the control group” value in data set [2] is “did not induce increased micronuclei formation”.

Regarding `CCOc1ccc(NC(C)=O)cc1` [phenacetin], the “Ames test result (mutagenicity)” value in data set [3] is recorded as “only tested positively in the Ames test if an incubation of phenacetin is carried out with the S9 fraction of hamster liver”.
